Experiment: Approximate solubility in different solvents at RT
Assay type: physicochemical
Description: For each experiment, approximately 2 mg of sample was added into a 3-mL glass vial. Corresponding solvents were then added stepwise (50/50/200/700/1000 μL) into the vials until the solids were dissolved visually or a total volume of 2 mL was reached. Solubility results summarized in Table 64 to Table 66 were used to guide the solvent selection in polymorph screening design.

SMILES: N#Cc1ccc(COc2cccc(C3CCN(Cc4nc5ccc(C(=O)O)cc5n4Cc4cncs4)CC3)n2)c(F)c1 [Freeform Type D]
- Approximate solubility (1,4-Dioxane, RT): S < 1.1 mg/mL
- Approximate solubility (2-MeTHF, RT): S < 1.0 mg/mL
- Approximate solubility (Anisole, RT): S < 1.0 mg/mL
- Approximate solubility (CHCl3, RT): S < 1.1 mg/mL
- Approximate solubility (CPME, RT): S < 0.9 mg/mL
- Approximate solubility (DMSO, RT): S > 44.0 mg/mL
- Approximate solubility (H2O, RT): S < 1.1 mg/mL
- Approximate solubility (IPA, RT): S < 1.1 mg/mL
- Approximate solubility (MTBE, RT): S < 1.1 mg/mL
- Approximate solubility (Toluene, RT): S < 1.0 mg/mL
- Approximate solubility (n-Heptane, RT): S < 1.0 mg/mL

Source: patent publication US20240360122A1, “POLYMORPHIC FORMS AND SALTS OF A GLP-1R AGONIST” (Terns (Suzhou) Biotechnology Co., Ltd., priority 2023, published 2024)
